Measured values taken from patent US11939327B2, “Heterocyclic compounds” (Takeda Pharmaceutical Company Limited, priority 2017, dated 2024).

Experiments:
human GluR1 flip = target: T1, human GluR1 flip (Homo sapiens, UniProt P42261); assay: AMPA receptor function-enhancing activity using calcium influx as index (CHO-K1/GluR1 flip/stargazin-expressing cells); type: cell-based; conditions: CHO-K1, test compound 30 μM with 3 mM glutamic acid, 100% = 3 mM glutamic acid + 300 μM cyclothiazide, 0% = 3 mM glutamic acid alone, read-out: hGluR1 flip/30 μM (%)
T1 construct: expressed in transfected cells; host or cells: CHO-K1
T1 sequence (P42261 19-906 isoform P42261-2 limits assumed): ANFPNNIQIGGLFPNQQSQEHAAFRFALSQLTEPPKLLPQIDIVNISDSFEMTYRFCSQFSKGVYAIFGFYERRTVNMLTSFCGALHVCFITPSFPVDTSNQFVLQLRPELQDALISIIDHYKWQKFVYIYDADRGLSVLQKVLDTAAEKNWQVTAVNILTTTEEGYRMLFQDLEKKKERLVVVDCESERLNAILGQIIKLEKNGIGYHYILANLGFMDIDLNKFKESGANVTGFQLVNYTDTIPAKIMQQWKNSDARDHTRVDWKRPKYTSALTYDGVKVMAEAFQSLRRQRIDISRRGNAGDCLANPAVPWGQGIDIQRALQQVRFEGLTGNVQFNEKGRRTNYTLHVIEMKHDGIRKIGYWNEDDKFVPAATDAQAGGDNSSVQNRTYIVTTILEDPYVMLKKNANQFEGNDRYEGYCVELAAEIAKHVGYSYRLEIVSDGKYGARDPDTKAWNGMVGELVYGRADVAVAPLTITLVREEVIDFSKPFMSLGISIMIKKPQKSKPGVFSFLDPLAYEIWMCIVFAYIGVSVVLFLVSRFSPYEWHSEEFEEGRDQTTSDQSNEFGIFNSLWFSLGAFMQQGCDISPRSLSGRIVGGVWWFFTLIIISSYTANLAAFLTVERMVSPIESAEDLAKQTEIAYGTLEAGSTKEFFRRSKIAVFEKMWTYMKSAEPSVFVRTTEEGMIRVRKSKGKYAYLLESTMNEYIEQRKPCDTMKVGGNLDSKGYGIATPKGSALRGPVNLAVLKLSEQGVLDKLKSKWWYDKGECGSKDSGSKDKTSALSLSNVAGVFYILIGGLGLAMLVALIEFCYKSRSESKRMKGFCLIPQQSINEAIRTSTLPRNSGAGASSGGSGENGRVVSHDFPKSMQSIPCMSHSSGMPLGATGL
T1 sequence (Q9Y698 whole entry partner): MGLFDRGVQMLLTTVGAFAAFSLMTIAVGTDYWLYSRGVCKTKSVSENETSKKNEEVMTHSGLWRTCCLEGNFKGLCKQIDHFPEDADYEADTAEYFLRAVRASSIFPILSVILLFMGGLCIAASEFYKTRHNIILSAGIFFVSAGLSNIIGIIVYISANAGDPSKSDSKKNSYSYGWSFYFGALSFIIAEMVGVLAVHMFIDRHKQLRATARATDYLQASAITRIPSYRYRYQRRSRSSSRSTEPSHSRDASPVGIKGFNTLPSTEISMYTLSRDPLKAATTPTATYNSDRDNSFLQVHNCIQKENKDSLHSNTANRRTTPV
Text: Experimental Example 1 Measurement method of AMPA receptor function-enhancing activity of compound using calcium influx as index
(1) Construction of Expression Gene
Human GluR1 flip cDNA was amplified by PCR method using forward primer […] (SEQ ID NO: 1) and reverse primer […] (SEQ ID NO: 2) artificially synthesized using human brain-derived cDNA (BD Bioscience) as a template. The amplified product was digested with restriction enzymes EcoRI, NotI (TAKARA SHUZO CO. LTD.) and incorporated into the same site of pcDNA3.1(+) (Invitrogen) to construct pcDNA3.1(+)/human GluR1 flip gene. Human stargazin cDNA was amplified by PCR method using forward primer […] (SEQ ID NO: 3) and reverse primer […] (SEQ ID NO: 4) artificially synthesized using human hippocampus cDNA as a template. The amplified product was digested with restriction enzymes XhoI, BamHI (TAKARA SHUZO CO. LTD.) and incorporated into the same site of pcDNA3.1(−) (Invitrogen) to construct pcDNA3.1 Zeo(−)/human stargazing gene.
(2) Construction of GluR1 Flip/Stargazin Expressing Cell
CHO-K1 cells passaged in a culture medium (Ham's F12 medium (Invitrogen) added with 10% inactivated fetal bovine serum (Morgate) and penicillin, streptomycin (Invitrogen)) were detached using 0.05% trypsin and 0.53 mM EDTA (Invitrogen) diluted with D-PBS(−). The detached cells were suspended in a culture medium, and recovered by centrifugation at 1,000 rpm. The recovered cells were re-suspended in D-PBS(−) and added into 0.4 cm electroporation cuvette (BioRad). pcDNA3.1(+)/human GluR1 flip gene (5 μg) and pcDNA3.1 Zeo(−)/human stargazin gene (15 μg) were added, and introduced into CHO-K1 cells under the conditions of 950 μFd, […] and using Gene Pulser II (BioRad). The introduced cells were cultured overnight in a culture medium. The next day, using a selection medium (culture medium added with zeocin (Invitrogen) at 250 μg/mL), the cells were plated in a 96 well plate at 250 cells/well. The clones showing drug resistance were selected, and GluR1 flip/stargazin expression clones were selected by an assay method shown below using calcium influx as an index.
(3) Measurement Method of AMPA Receptor Function-Enhancing Activity of Compound, Using Calcium Influx as an Index
CHO-K1/GluR1 flip/stargazin-expressing cells were plated on a 384 well black bottom transparent plate, and cultured for 2 days in a CO2 incubator (SANYO ELECTRIC Co. Ltd.) at 37° C. The medium of the cell plate was removed. A calcium indicator (Calcium5 Assay Kit, Molecular Devices) was diluted with an assay buffer (HBSS (Thermo Fisher Scientific), 0.1% BSA (Merck Millipoer) and 10 mM HEPES (Thermo Fisher Scientific)), and 1.25 mM probenecid (Dojindo Laboratories) was added thereto. The mixture prepared above was added at 30 μL/well (100 μL/well in case of 96 wells) to the well, and the well was left standing in 37° C., CO2 incubator for 1 hr. The cell plate was set in CellLux (PerkinElmer), a mixture (15 μL) (50 μL/well in case of 96 wells) of […] glutamic acid (final concentration 3 mM) diluted with an assay buffer and a test compound (test compound concentration 30 μM) was added thereto, and variation in the amount of fluorescence was measured for 3 min. The variation of fluorescence level of a well added with final concentration 3 mM of glutamic acid and 300 μM cyclothiazide (TOCRIS) was defined as 100%, the variation of fluorescence level of a well added with final concentration 3 mM of glutamic acid alone was defined as 0%, and the activity of the compound was calculated by the following formula. activity (%)=(X−C)/(T−C)×100 • T: variation of fluorescence level of well added with final concentration 3 mM of glutamic acid and 300 μM cyclothiazide • C: variation of fluorescence level of well added with final concentration 3 mM of glutamic acid alone • X: variation of fluorescence level of well added with test compound

Long Evans rats = assay: Novel object recognition test; type: in vivo, rat; conditions: male Long Evans rats; for Novel Object Interaction (%): 1 mg/kg p.o. 1 hr before acquisition trial and 1 hr before retention trial, retention trial 48 hr after acquisition, mean ± standard error; for novel object interaction (result in words): 1 mg/kg p.o., versus 0 mg/kg
Text: Experimental Example 2 Novel Object Recognition Test
Male Long Evans rats were supplied by Japan SLC, and used at 7-week-old in the experiments. After arrival to the vivarium, animals were allowed a minimum of 1 week for acclimation. They were housed under a 12:12-h light/dark cycle in a temperature- and humidity-controlled laboratory and allowed food and water ad libitum.
A test compound was suspended in 0.5% methylcellulose in distilled water and orally administered (p.o.). All test compounds were dosed in a volume of 2 mL/kg body weight for rats.
(3) Novel Object Recognition Test
Novel object recognition test is a test system utilizing the novel object preference characteristics of rodents. This novel object recognition test consists of two trials, “acquisition trial” and “retention trial”, and, when an interval between these two trials is short, rodents spend a longer period for novel object exploration behaviors, and the preference dissipates as the interval gets longer. From this, the behavioral change in the novel object recognition test is considered to reflect the rodents' memory of the object during the acquisition trial. In this experimental example, the retention trial was carried out 48 hr after the acquisition trial. On the day before the test, for acclimation, Long-Evans rats were allowed to freely move about the test box (40×40×50 cm) for 10 minutes. On the test day, the rats were acclimated to the test room for about 1 hr prior to the test. The test compound (Compound A (Example 10), Compound B (Example 35), 1 mg/kg) were orally administered to the rats twice 1 hr before the acquisition trial and 1 hr before the retention trial. For the acquisition trial, two identical objects (A1, A2) were placed in the test box. The rats were put in the test box for 3 min, and the duration contacting each object was measured. The retention trial was carried out 48 hr after the acquisition trial. For the retention trial, the familiar object (A3) used for the acquisition trial and the novel object (B) different shape from A3 were placed in the test box. The rats were put in the test box for 3 min. The duration contacting each object in the acquisition trial and the retention trial, and the novel object interaction (%) was calculated. The novel object interaction (%) was expressed as (the duration contacting the novel object)/[(the duration contacting the novel object)+(the duration contacting the familiar object)]×100(%) at mean±standard error.

Structure (SMILES) | activation at 30 µM (human GluR1 flip) | Novel Object Interaction (%) (Long Evans rats) | novel object interaction (result in words) (Long Evans rats)
O=C(c1ccc(-c2nccc3c2nc(C(F)(F)F)n3CC(F)F)cc1F)N1CCOCC1 [Example 10, (4-(1-(2,2-difluoroethyl)-2-(trifluoromethyl)-1H-imidazo[4,5-c]pyridin-4-yl)-2-fluorophenyl)(morpholin-4-yl)methanone] | 90.5% | 56.32 ± 1.56% | increased
C[C@H]1CN(C(=O)c2ccc(-c3nccc4c3nc(C(F)(F)F)n4CC(F)F)cc2F)CCO1 [Example 17, (4-(1-(2,2-difluoroethyl)-2-(trifluoromethyl)-1H-imidazo[4,5-c]pyridin-4-yl)-2-fluorophenyl)((2S)-2-methylmorpholin-4-yl)methanone] | 95.1% |  | 
CO[C@@H]1CCN(C(=O)c2ccc(-c3nccc4c3nc(C(F)(F)F)n4CC(F)F)cc2F)C1 [Example 37, (4-(1-(2,2-difluoroethyl)-2-(trifluoromethyl)-1H-imidazo[4,5-c]pyridin-4-yl)-2-fluorophenyl)((3R)-3-methoxypyrrolidin-1-yl)methanone] | 89.8% |  | 
O=C(c1ccc(-c2cccc3c2nc(C(F)(F)F)n3CC(F)F)c(F)c1)N1CCOCC1 [Example 51, (4-(1-(2,2-difluoroethyl)-2-(trifluoromethyl)-1H-benzimidazol-4-yl)-3-fluorophenyl)(morpholin-4-yl)methanone] | 113% |  | 
O=C(c1ncc(-c2cccc3c2nc(C(F)(F)F)n3CC(F)F)cc1F)N1CCOCC1 [Example 35, (5-(1-(2,2-difluoroethyl)-2-(trifluoromethyl)-1H-benzimidazol-4-yl)-3-fluoropyridin-2-yl)(morpholin-4-yl)methanone] | 81.2% | 61.28 ± 2.35% | increased
O=C(c1ccc(-c2cccc3c2nc(C(F)(F)F)n3CC(F)F)nc1)N1CCOCC(F)(F)C1 [Example 46, (6-(1-(2,2-difluoroethyl)-2-(trifluoromethyl)-1H-benzimidazol-4-yl)pyridin-3-yl)(6,6-difluoro-1,4-oxazepan-4-yl)methanone] | 77% |  | 
CN(CCC#N)C(=O)c1ccc(-c2cccc3c2nc(C(F)(F)F)n3CC(F)F)cc1 [Example 21, N-(2-cyanoethyl)-4-(1-(2,2-difluoroethyl)-2-(trifluoromethyl)-1H-benzimidazol-4-yl)-N-methylbenzamide] | 93.7% |  | 
O=C(c1ccc(-c2nccc3c2nc(C(F)(F)F)n3CC(F)F)c(F)c1)N1CCOCC1 [Example 53, (4-(1-(2,2-difluoroethyl)-2-(trifluoromethyl)-1H-imidazo[4,5-c]pyridin-4-yl)-3-fluorophenyl)(morpholin-4-yl)methanone] | 69% |  | 
Cn1c(C(F)(F)F)nc2c(-c3ccc(C(=O)N4CCOCC4)c(F)c3)cccc21 [Example 12, (2-fluoro-4-(1-methyl-2-(trifluoromethyl)-1H-benzimidazol-4-yl)phenyl)(morpholin-4-yl)methanone] | 84.4% |  | 
O=C(c1ccc(-c2cccc3c2nc(C(F)(F)F)n3CC(F)F)cn1)N1CCOCC(F)(F)C1 [Example 39, (5-(1-(2,2-difluoroethyl)-2-(trifluoromethyl)-1H-benzimidazol-4-yl)pyridin-2-yl)(6,6-difluoro-1,4-oxazepan-4-yl)methanone] | 110% |  | 
C[C@@H]1CN(C(=O)c2ccc(-c3nccc4c3nc(C(F)(F)F)n4CC(F)F)cc2F)CCO1 [Example 44, (4-(1-(2,2-difluoroethyl)-2-(trifluoromethyl)-1H-imidazo[4,5-c]pyridin-4-yl)-2-fluorophenyl)((2R)-2-methylmorpholin-4-yl)methanone] | 85.5% |  | 
O=C(c1ccc(-c2nccc3c2nc(C(F)(F)F)n3CC(F)F)cc1F)N1CCOCC(F)(F)C1 [Example 34, (4-(1-(2,2-difluoroethyl)-2-(trifluoromethyl)-1H-imidazo[4,5-c]pyridin-4-yl)-2-fluorophenyl)(6,6-difluoro-1,4-oxazepan-4-yl)methanone] | 94.2% |  | 
CN(C(=O)c1ccc(-c2nccc3c2nc(C(F)(F)F)n3CC(F)F)cc1F)C1CCOCC1 [Example 28, 4-(1-(2,2-difluoroethyl)-2-(trifluoromethyl)-1H-imidazo[4,5-c]pyridin-4-yl)-2-fluoro-N-methyl-N-(tetrahydro-2H-pyran-4-yl)benzamide] | 97.8% |  | 
